“Also recorded” adds a separate entry of the source.
Experiments:
Assay type in all cases: cell-based
ULA cells [1] = test: Cell cycle analysis, ULA; details: GSK137 0.1-10 μM; for fraction of cells in G1: BI3802 1 μM, 2 or 6 days; for dead or dying cells: day 6, BI3802 1 μM
Experimental: (§1) Farage, ULA, KARPAS-422, and VAL cells were seeded into 6-well tissue culture dishes in a total volume of 6 mL at densities of 6.25 x10^3, 7.81 x10^3, 6.25 x10^3, and 1.56 x10^3 cells/mL, respectively and incubated overnight at 37 °C and 5% CO2. Cells were then treated with 0.1 µM, 1 µM, or 10 µM GSK137 or 1 µM BI3802 for 2 or 6 days at 37 °C and 5% CO2. Cell cycle analysis was performed using the Click-iT EdU Alexa Fluor 647 Flow Cytometry Assay Kit (Thermo Fisher Scientific, Waltham, MA, USA) following the manufacturer’s instructions, with volumes adjusted for a […] U-bottom plate, and with an approximately 1 hour treatment with 10 μM EdU. After EdU treatment, approximately 2x10^5 cells per well were transferred into a 96-well, non-tissue culture treated U-bottom plate and stained with 6.7µg/ml final FxCycle Violet Stain for 30 minutes incubation at room temperature. Cells were then analyzed on a flow cytometer (BD FACS Canto […] or LSR FortessaTM X-20 (Becton Dickinson, Franklin Lakes, NJ, USA)) with compensation each day using one cell line and data analyzed using FlowJo software (version 10.3). Percentages of cells in each phase of the cell cycle were then averaged across technical replicates.

[2] = test system: Farage, Karpas422 and VAL cells; test: Cell cycle analysis, Farage, Karpas422, VAL; details: 2 or 6 days
Experimental: as §1

ULA cells [3] = test: Viability and cumulative cell number analysis, ULA; details: 14 days; for cell viability: GSK137 0.1-10 μM, BI3802 0.1 and 1 μM
Experimental: Farage cells were cultured in RPMI1640 (1×) + 20% heat-inactivated fetal bovine serum (FBS), ULA in Iscove's modified Dulbecco's medium + 20% FBS, whereas Karpas422 and VAL were cultured in RPMI1640 + 20% heat-inactivated FBS, all with the addition of 1% Glutamax and 1% sodium pyruvate.
Farage, ULA, Karpas422, and VAL cells were seeded into T25 tissue culture flasks in a total volume of 7 mL per flask at densities of 5 x10^4, 7 x10^4, 5 x10^4, and 4 x10^4 cells/mL, respectively and incubated overnight at 37 °C and 5% CO2. Cells were then treated with a 3-point titration of GSK137 (0.1 µM, 1 µM, and 10 µM) throughout a 14-day time course. Treatments with multiple concentrations of BI3802 were also included for comparison (Farage and Karpas422 cells were treated with 0.01 µM, 0.1 µM, and 1 µM BI3802; ULA cells were treated with 0.1 µM and 1 µM BI3802; VAL cells were treated with 0.1 µM, 1 µM, and 10 µM BI3802). Viability (trypan blue exlcusion) and cumulative cell number were measured on a Vi-CELL XR 2.03 (Beckman Coulter, Brea, CA, USA) on day of seeding and on days 3, 6, 10, and 14.

[4] = test system: BCL6 target genes in Farage cells; test: Semiquantitative real-time PCR of ten BCL6 target genes; details: 72-h treatment
Experimental: Farage cells were plated at a density of 3000 cells/100 µl in 96-well plates, incubated overnight at 37 °C then treated with a 10-point, 1:3-fold serial dilution of compound at a top concentration of 20 µM for GSK137 or 10 µM BI3802. Cells were returned to the incubator for 3 days prior to harvesting for RNA isolation. RNA was isolated using the TurboCapture 96 Kit (Qiagen, Hilden, Germany; # 72251), cDNA generated using the High Capacity cDNA Reverse Transcription kit (ABI, Foster City, CA, USA; #4374966) both following the manufacturer’s instructions. qPCR was performed on a ViiA7 real-time PCR machine (Life Technologies, Carlsbad, CA, USA) using the Fast TaqMan ΔΔCt method. Quadruplicate readings were measured for each biological replicate sample. Individual TaqMan assays are listed (Table S4). Expression data were analyzed using the Comparative Ct^(2–ΔΔ^Ct) method (42) The Ct values of the treated samples are compared to vehicle treated samples and normalized to GAPDH. Changes are presented as an average RQ (termed “relative expression”). RQ values between 0 and 1 correspond to a downregulation of gene expression, RQ values greater than 1 correspond to upregulation.

[5] = molecular target: T1, full-length human BCL6 binding to BCL6-binding domain of SMRT (residues 1292-1500) (Homo sapiens, UniProt P41182); test: NanoBRET cell assay in HEK293-WT cells
T1 construct: Nano Luciferase fused at the N-terminus of full-length human BCL6; host or cells: HEK293-WT (ATCC CRL-1573)
Text: Plasmids encoding Nano Luciferase fused at the N-terminus of full-length human BCL6 and encoding Halo tag fused at the C-terminus of the BCL6 binding domain (1292-1500) of human SMRT co-repressor were generated under contract by Promega Corporation. HEK293-WT cells were from ATCC (CRL-1573). Fugene HD transfection reagent (catalogue number E2311), HaloTag NanoBRET 618 ligand (catalogue number G980B) and NanoBRET Nano-Glo substrate (catalogue number N157B) were from Promega Ltd.
Assay day 1 (Transient Transfection): 8 x 10^6 HEK293-WT cells per T75 flask (one per compound plate), were transfected with mix comprising 10 µg BCL6 DNA, 10 µg domain SMRT DNA, 1 mL Opti-MEM and 60 µL FuGene (added last), incubating at room temperature for 10 mins prior to addition to flask. The flask was incubated for 20-24 hours at 37 °C and 5% CO2. Assay day 2 (Cell plating): Cells were detached, spun and re-suspended at 2 x 10^5 cells/mL, HaloTag NanoBRET 618 ligand at 1:1000 dilution was added and plated at 40 µL / well with test compounds prepared as above, a duplicate plate without HaloTag ligand was used as background control. The plates were incubated at 37 °C and 5% CO2 overnight (18-24 hours). Assay day 3 (Assay): 1:1000 NanoGlo substrate final was added to all wells, shaken for 30 seconds and luminescence then read on an Envision plate reader. […]

Q: How did the “fraction of cells in G1” value (ULA cells [1]) turn out when `CNC(=O)COc1cc2cc(Nc3nc(N4C[C@H](C)C[C@H](C)C4)ncc3Cl)ccc2n(C)c1=O` [BI3802, reference compound] was run?
A: Its value is “increased fraction of cells in G1 at day 2”.

Q: What about the “dead or dying cells” value (ULA cells [1]) of the same compound?
A: Its value is about 40%.

Q: What about the “fraction of cells in G1” value [2] of the same compound?
A: The value was “only minor increase in the fraction of cells in G1”.

Q: What about the cumulative cell number (ULA cells [3]) of the same compound?
A: Its cumulative cell number is “most sensitive”.

Q: And the cell viability (ULA cells [3])?
A: The cell viability was “only appreciably reduced viability in ULA at the highest concentration used”.

Q: What about the “expression changes in a panel of 10 BCL6 target genes” value [4] of the same compound?
A: Its value is “dose-dependent changes to six of the ten genes”.

Q: What about the “activity in cellular assay compared with reported potency” value ([5]; cellular) of the same compound?
A: The value was “consistent with the previously reported potency”.

Q: Which “fraction of cells in G1” value (ULA cells [1]) does the source give for `Cc1ncccc1[C@H]1C[C@@H](c2cccc3nc(N)ccc23)Nc2c(F)cnn21` [GSK137, 5-((5S,7R)-3-Fluoro-7-(2-methylpyridin-3-yl)-4,5,6,7-tetrahydropyrazolo[1,5-a]pyrimidin-5-yl)quinolin-2-amine] here?
A: Its value is “modest dose and time-dependent G1 cell cycle arrest”.

Q: What about the “dead or dying cells” value (ULA cells [1]) of the same compound?
A: The value was “no increase in dead or dying cells”.

Q: What about the “fraction of cells in G1” value [2] of the same compound?
A: The value was “only minor increase in the fraction of cells in G1”.

Q: What about the cell viability (ULA cells [3]) of the same compound?
A: The cell viability was “no major change in cell viability; also recorded: only minimal reduction in viability”.

Q: And the “expression changes in a panel of 10 BCL6 target genes” value [4]?
A: Its value is “clear increase only in SOCS2 with some increase in CD69”.

Q: And the IC50 ([5]; live cells, full-length human BCL6 / SMRT BBD, read-out: pIC50 Human NanoBret cell (converted))?
A: Its IC50 is 50.1 nM.

— publication PMC8350397, “GSK137, a potent small-molecule BCL6 inhibitor with in vivo activity, suppresses antibody responses in mice” (The Journal of Biological Chemistry, 2021)
